Data: the NIST ThermoML archive (doi:10.1016/j.jct.2004.07.024)

Test: xn = mol fraction of the nth substance listed
Conditions: 101.33 kPa, Liquid

CCc1ccccc1 [ethylbenzene] + C[S+](C)[O-]
Conditions	mass density [kg/m3]
293.15 K, x1 = 0.0626	1076.31
293.15 K, x1 = 0.1596	1043.57
293.15 K, x1 = 0.2203	1025.03
293.15 K, x1 = 0.2983	1003.06
293.15 K, x1 = 0.3698	984.55
293.15 K, x1 = 0.4623	962.58
293.15 K, x1 = 0.5186	950.18
293.15 K, x1 = 0.5712	939.18
293.15 K, x1 = 0.6285	927.89
293.15 K, x1 = 0.6802	918.18
293.15 K, x1 = 0.7525	905.36
293.15 K, x1 = 0.8102	895.69
293.15 K, x1 = 0.8723	885.81
293.15 K, x1 = 0.9456	874.79
303.15 K, x1 = 0.0669	1065.53
303.15 K, x1 = 0.1456	1038.79
303.15 K, x1 = 0.2569	1005.2
303.15 K, x1 = 0.3203	988
303.15 K, x1 = 0.3956	969
303.15 K, x1 = 0.4569	954.63
303.15 K, x1 = 0.5132	942.23
303.15 K, x1 = 0.5856	927.28
303.15 K, x1 = 0.6277	919.04
303.15 K, x1 = 0.7065	904.51
303.15 K, x1 = 0.7856	890.93
303.15 K, x1 = 0.8359	882.8
303.15 K, x1 = 0.8856	875.1
303.15 K, x1 = 0.9503	865.51
313.15 K, x1 = 0.0624	1056.77
313.15 K, x1 = 0.1459	1028.39
313.15 K, x1 = 0.2201	1005.62
313.15 K, x1 = 0.2692	991.65
313.15 K, x1 = 0.3314	975.03
313.15 K, x1 = 0.3963	958.87
313.15 K, x1 = 0.4456	947.35
313.15 K, x1 = 0.4965	936.07
313.15 K, x1 = 0.5216	930.71
313.15 K, x1 = 0.5986	915.08
313.15 K, x1 = 0.6853	898.86
313.15 K, x1 = 0.7526	887.13
313.15 K, x1 = 0.8418	872.68
313.15 K, x1 = 0.9258	860.05
323.15 K, x1 = 0.0625	1046.39
323.15 K, x1 = 0.1786	1007.95
323.15 K, x1 = 0.2469	987.84
323.15 K, x1 = 0.3095	970.78
323.15 K, x1 = 0.3698	955.5
323.15 K, x1 = 0.4152	944.61
323.15 K, x1 = 0.4723	931.67
323.15 K, x1 = 0.5362	918.08
323.15 K, x1 = 0.6048	904.45
323.15 K, x1 = 0.6604	894.04
323.15 K, x1 = 0.7301	881.76
323.15 K, x1 = 0.7992	870.36
323.15 K, x1 = 0.8683	859.65
323.15 K, x1 = 0.9226	851.65
333.15 K, x1 = 0.066	1034.83
333.15 K, x1 = 0.1159	1017.74
333.15 K, x1 = 0.1896	994.42
333.15 K, x1 = 0.2156	986.74
333.15 K, x1 = 0.2765	969.61
333.15 K, x1 = 0.3286	955.9
333.15 K, x1 = 0.3964	939.26
333.15 K, x1 = 0.4598	924.75
333.15 K, x1 = 0.5349	908.81
333.15 K, x1 = 0.6126	893.53
333.15 K, x1 = 0.6861	880.14
333.15 K, x1 = 0.7698	865.99
333.15 K, x1 = 0.8459	854.04
333.15 K, x1 = 0.9025	845.66
343.15 K, x1 = 0.0599	1026.68
343.15 K, x1 = 0.1569	994.32
343.15 K, x1 = 0.2363	970.71
343.15 K, x1 = 0.3001	953.33
343.15 K, x1 = 0.3895	931.07
343.15 K, x1 = 0.4519	916.81
343.15 K, x1 = 0.5163	903.06
343.15 K, x1 = 0.5698	892.31
343.15 K, x1 = 0.6389	879.27
343.15 K, x1 = 0.6895	870.27
343.15 K, x1 = 0.7558	859.13
343.15 K, x1 = 0.8106	850.44
343.15 K, x1 = 0.8895	838.64
343.15 K, x1 = 0.9502	830.09
353.15 K, x1 = 0.059	1016.69
353.15 K, x1 = 0.1555	984.6
353.15 K, x1 = 0.2236	964.29
353.15 K, x1 = 0.2856	947.23
353.15 K, x1 = 0.3384	933.66
353.15 K, x1 = 0.4089	916.78
353.15 K, x1 = 0.4625	904.82
353.15 K, x1 = 0.5185	893.03
353.15 K, x1 = 0.5665	883.47
353.15 K, x1 = 0.6255	872.34
353.15 K, x1 = 0.6706	864.28
353.15 K, x1 = 0.7556	850
353.15 K, x1 = 0.8326	838.04
353.15 K, x1 = 0.9129	826.41

C[S+](C)[O-] [dimethyl sulfoxide] + c1ccccc1
Conditions	mass density [kg/m3]
293.15 K, x2 = 0.0589	1084.47
293.15 K, x2 = 0.1255	1067.5
293.15 K, x2 = 0.1852	1052.58
293.15 K, x2 = 0.2561	1035.37
293.15 K, x2 = 0.2934	1026.52
293.15 K, x2 = 0.3345	1016.91
293.15 K, x2 = 0.3782	1006.87
293.15 K, x2 = 0.4312	994.89
293.15 K, x2 = 0.4757	985.02
293.15 K, x2 = 0.5963	958.97
293.15 K, x2 = 0.6875	939.81
293.15 K, x2 = 0.7369	929.61
293.15 K, x2 = 0.8637	903.71
293.15 K, x2 = 0.9562	885.02
303.15 K, x2 = 0.0596	1075.16
303.15 K, x2 = 0.1345	1056.18
303.15 K, x2 = 0.194	1041.49
303.15 K, x2 = 0.2473	1028.63
303.15 K, x2 = 0.2893	1018.74
303.15 K, x2 = 0.3465	1005.44
303.15 K, x2 = 0.4213	988.61
303.15 K, x2 = 0.4835	974.94
303.15 K, x2 = 0.5431	962.12
303.15 K, x2 = 0.5968	950.76
303.15 K, x2 = 0.6763	934.26
303.15 K, x2 = 0.7781	913.49
303.15 K, x2 = 0.8511	898.8
303.15 K, x2 = 0.9542	878.27
313.15 K, x2 = 0.059	1064.91
313.15 K, x2 = 0.1267	1047.76
313.15 K, x2 = 0.1873	1032.78
313.15 K, x2 = 0.2676	1013.53
313.15 K, x2 = 0.2933	1007.51
313.15 K, x2 = 0.3378	997.22
313.15 K, x2 = 0.4321	976.04
313.15 K, x2 = 0.4752	966.67
313.15 K, x2 = 0.5514	950.39
313.15 K, x2 = 0.6011	939.97
313.15 K, x2 = 0.6837	923
313.15 K, x2 = 0.7653	906.53
313.15 K, x2 = 0.8681	886.1
313.15 K, x2 = 0.9499	870
323.15 K, x2 = 0.0602	1054.55
323.15 K, x2 = 0.1257	1038.36
323.15 K, x2 = 0.1833	1024.43
323.15 K, x2 = 0.2512	1008.48
323.15 K, x2 = 0.3294	990.67
323.15 K, x2 = 0.3931	976.6
323.15 K, x2 = 0.4615	961.88
323.15 K, x2 = 0.5232	948.95
323.15 K, x2 = 0.5972	933.77
323.15 K, x2 = 0.6502	923.09
323.15 K, x2 = 0.7149	910.25
323.15 K, x2 = 0.7896	895.64
323.15 K, x2 = 0.8788	878.39
323.15 K, x2 = 0.9556	863.66
333.15 K, x2 = 0.0593	1044.75
333.15 K, x2 = 0.1279	1028.18
333.15 K, x2 = 0.1801	1015.83
333.15 K, x2 = 0.2566	998.31
333.15 K, x2 = 0.3263	982.84
333.15 K, x2 = 0.3862	969.9
333.15 K, x2 = 0.4523	955.99
333.15 K, x2 = 0.5213	941.87
333.15 K, x2 = 0.5869	928.72
333.15 K, x2 = 0.6532	915.7
333.15 K, x2 = 0.7256	901.71
333.15 K, x2 = 0.7959	888.33
333.15 K, x2 = 0.8864	871.29
333.15 K, x2 = 0.9116	866.58
343.15 K, x2 = 0.0593	1034.67
343.15 K, x2 = 0.1356	1016.68
343.15 K, x2 = 0.2182	997.86
343.15 K, x2 = 0.2636	987.78
343.15 K, x2 = 0.3296	973.51
343.15 K, x2 = 0.3938	960.01
343.15 K, x2 = 0.4686	944.74
343.15 K, x2 = 0.5213	934.26
343.15 K, x2 = 0.5769	923.38
343.15 K, x2 = 0.6623	907.03
343.15 K, x2 = 0.7385	892.7
343.15 K, x2 = 0.7801	884.99
343.15 K, x2 = 0.8569	870.86
343.15 K, x2 = 0.9503	853.81
353.15 K, x2 = 0.058	1024.84
353.15 K, x2 = 0.1585	1001.73
353.15 K, x2 = 0.2335	985.09
353.15 K, x2 = 0.3065	969.42
353.15 K, x2 = 0.3765	954.93
353.15 K, x2 = 0.4187	946.35
353.15 K, x2 = 0.4682	936.49
353.15 K, x2 = 0.5242	925.57
353.15 K, x2 = 0.5912	912.8
353.15 K, x2 = 0.6404	903.56
353.15 K, x2 = 0.7556	882.4
353.15 K, x2 = 0.8024	873.93
353.15 K, x2 = 0.8701	861.79
353.15 K, x2 = 0.9284	851.4
